Assay results taken from the NIST ThermoML archive (doi:10.1016/j.jct.2011.10.013).

Legend:
[1] = xn = mol fraction of the nth substance listed; settings: 298.15 K; for surface tension liquid-gas: Dataphysics DCAT21 digital tensiometer; for mass density: 101 kPa, Liquid, Vibrating tube method
[2] = for surface tension liquid-gas: Dataphysics DCAT21 digital tensiometer; for mass density: Liquid, Vibrating tube method

CCCCCCCC[n+]1ccccc1.O=[N+]([O-])[O-] [1-octylpyridinium nitrate] + CO
[1]
Settings	mass density [kg/m3]	surface tension liquid-gas [mN/m]
x1 = 0.1026	910.2	27.4
x1 = 0.2063	974.3	30.11
x1 = 0.3072	1011.3	30.78
x1 = 0.4225	1038.4	32
x1 = 0.5067	1052.6	–
x1 = 0.6067	1065	–
x1 = 0.8534	1084.4	–
x1 = 0.936	1087.5	–
x1 = 1	1089.5	–

CO [methanol]
Settings	surface tension liquid-gas [mN/m]
[2], 298.15 K	22.09

Settings	mass density [kg/m3]
[2], 298.15 K, 101 kPa	785.3

CCCCO [butan-1-ol] + CCCCCCCC[n+]1ccccc1.O=[N+]([O-])[O-]
[1], x2 = 0
Settings	mass density [kg/m3]	surface tension liquid-gas [mN/m]
–	805.6	23.67

CCO [ethanol]
Settings	surface tension liquid-gas [mN/m]
[2], 298.15 K	21.55

Settings	mass density [kg/m3]
[2], 298.15 K, 101 kPa	784.8

CCCCCCCC[n+]1ccccc1.O=[N+]([O-])[O-] [1-octylpyridinium nitrate] + CCO
[1]
Settings	mass density [kg/m3]	surface tension liquid-gas [mN/m]
x1 = 0.2	939.3	26.44
x1 = 0.3035	981.4	27.83
x1 = 0.4063	1011.5	28.74
x1 = 0.5087	1034.2	29.75
x1 = 0.5903	1048.5	–
x1 = 0.7456	1069.4	–
x1 = 0.791	1073.9	–
x1 = 0.876	1081.5	–
x1 = 1	1089.5	–

CCCCO [butan-1-ol]
Settings	surface tension liquid-gas [mN/m]
[2], 298.15 K	23.67

Settings	mass density [kg/m3]
[2], 298.15 K, 101 kPa	805.6

CCO [ethanol] + CCCCCCCC[n+]1ccccc1.O=[N+]([O-])[O-]
[1], x2 = 0
Settings	mass density [kg/m3]	surface tension liquid-gas [mN/m]
–	784.8	21.55

CCCCCCCC[n+]1ccccc1.O=[N+]([O-])[O-] [1-octylpyridinium nitrate] + CCCCO
[1]
Settings	mass density [kg/m3]	surface tension liquid-gas [mN/m]
x1 = 0.1245	875.3	25.17
x1 = 0.2008	910	25.84
x1 = 0.3038	948.6	26.35
x1 = 0.4019	978.1	26.92
x1 = 0.5012	1002	27.53
x1 = 0.6025	1023	–
x1 = 0.701	1041.7	–
x1 = 0.8005	1059	–
x1 = 0.899	1074.9	–
x1 = 1	1089.5	–

CO [methanol] + CCCCCCCC[n+]1ccccc1.O=[N+]([O-])[O-]
[1], x2 = 0
Settings	mass density [kg/m3]	surface tension liquid-gas [mN/m]
–	785.3	22.09

CCCCCCCC[n+]1ccccc1.O=[N+]([O-])[O-] [1-octylpyridinium nitrate]
[2]
Settings	surface tension liquid-gas [mN/m]
293.15 K	36.12
298.15 K	35.76
303.15 K	35.5
308.15 K	35.18
313.15 K	34.76
318.15 K	34.48
323.15 K	34.12
328.15 K	33.78

[2], 101.33 kPa
Settings	mass density [kg/m3]
293.15 K	1093.5
298.15 K	1089.5
303.15 K	1084.2
308.15 K	1078.6
313.15 K	1073.4
318.15 K	1068.6
323.15 K	1063.8
328.15 K	1059.7
